Target: T1, human Werner helicase (WRN-BV08, Uniprot Q14191, amino acids 517-1235 with L1074F point mutation) (Homo sapiens, UniProt Q14191, L1074F)
T1 construct: Uniprot Q14191, amino acids 517-1235 with L1074F point mutation; TEV-cleavable 8×His (C, cleaved yes); made in house; host or cells: Sf9 insect cells (baculovirus)
Test: WRN (BV08) ADP-Glo Assay
Type: biochemical
Conditions: 0.15 nM WRN, 5 μM ATP, 0.1 nM DNA duplex, 15 min preincubation, 60 min at 25° C., pH 7.5, 1% DMSO; read-out: ADP-Glo_hWRN_IC50
How it was run: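 0.15 nM WRN (aa 517-1235, L1074F, Sf9-expressed, tag cleaved) preincubated 15 min at 25 °C with compound, then 5 μM ATP and 0.1 nM DNA duplex added for 60 min. Buffer: 20 mM Bicine pH 7.5, 1 mM MgCl2, 10 mM KCl, 1 mM TCEP; 1% DMSO. ADP-Glo luminescence; IC50 by 4-parameter fit.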

T1 sequence (Q14191 with tags, fused parts or gaps L1074F limits assumed): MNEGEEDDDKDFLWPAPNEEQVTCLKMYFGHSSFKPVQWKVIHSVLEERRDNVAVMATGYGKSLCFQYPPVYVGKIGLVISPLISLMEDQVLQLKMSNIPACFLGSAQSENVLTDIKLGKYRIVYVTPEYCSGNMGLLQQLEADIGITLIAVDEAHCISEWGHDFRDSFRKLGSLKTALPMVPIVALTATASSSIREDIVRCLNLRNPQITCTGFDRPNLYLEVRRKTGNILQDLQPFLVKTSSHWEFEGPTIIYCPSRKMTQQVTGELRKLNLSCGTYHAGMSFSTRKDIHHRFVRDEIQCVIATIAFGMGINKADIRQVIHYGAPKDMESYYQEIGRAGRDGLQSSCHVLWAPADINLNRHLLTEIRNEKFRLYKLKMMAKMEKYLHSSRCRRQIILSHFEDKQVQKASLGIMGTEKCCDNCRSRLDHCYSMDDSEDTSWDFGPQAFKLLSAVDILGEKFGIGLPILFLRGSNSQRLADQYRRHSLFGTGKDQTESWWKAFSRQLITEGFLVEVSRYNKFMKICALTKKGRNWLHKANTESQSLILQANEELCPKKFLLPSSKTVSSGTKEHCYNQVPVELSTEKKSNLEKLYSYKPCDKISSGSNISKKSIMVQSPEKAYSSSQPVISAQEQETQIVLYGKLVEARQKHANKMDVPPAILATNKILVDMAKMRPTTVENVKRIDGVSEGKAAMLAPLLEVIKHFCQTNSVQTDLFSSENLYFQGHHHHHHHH

SMILES | IC50 [nM]
CC(C)(O)c1cc(CN(C(=O)Cc2ccc(-c3ccc(F)cc3)cc2F)C2C=CS(=O)(=O)C2)ccn1 (stereo not drawn) [I-52, 2-{3,4′-difluoro-[1,1′-biphenyl]-4-yl}-N-(1,1-dioxo-2,3-dihydro-1lambda6-thiophen-3-yl)-N-{[2-(2-hydroxypropan-2-yl)pyridin-4-yl]methyl}acetamide] | < 500
COc1cc(CN(C(=O)C2CNc3cc(-c4ccc(F)cc4)ccc32)[C@@H]2C=CS(=O)(=O)C2)ccn1 (stereo partly drawn) [I-53, N-(1,1-dioxido-2,3-dihydrothiophen-3-yl)-6-(4-fluorophenyl)-N-((2-methoxypyridin-4-yl)methyl)indoline-3-carboxamide] | < 500
COc1cc(CN(C(=O)Cn2cc(-c3cccc(F)c3)cn2)C2C=CS(=O)(=O)C2)ccn1 (stereo not drawn) [I-54, N-(1,1-dioxo-2,3-dihydro-1lambda6-thiophen-3-yl)-2-[4-(3-fluorophenyl)-1H-pyrazol-1-yl]-N-[(2-methoxypyridin-4-yl)methyl]acetamide] | < 500
COc1cc(CN(C(=O)C(C(=O)N(C)C)c2ccc(-c3ccc(F)cc3)cc2)C2C=CS(=O)(=O)C2)ccn1 (stereo not drawn) [I-55, N-(1,1-dioxo-2,3-dihydro-1lambda6-thiophen-3-yl)-2-{4′-fluoro-[1,1′-biphenyl]-4-yl}-N-[(2-methoxypyridin-4-yl)methyl]-N′,N′-dimethylpropanediamide] | < 500
COc1cc(CN(C(=O)Cc2ccc(-n3cccc3C)cc2F)[C@@H]2C=CS(=O)(=O)C2)ccn1 [I-56, N-[(3R)-1,1-dioxo-2,3-dihydro-1lambda6-thiophen-3-yl]-2-[2-fluoro-4-(2-methyl-1H-pyrrol-1-yl)phenyl]-N-[(2-methoxypyridin-4-yl)methyl]acetamide] | < 500
CC(C)(O)c1cc(CN(C(=O)Cn2cc(-c3ccc(Cl)cc3)cn2)C2C=CS(=O)(=O)C2)ccn1 (stereo not drawn) [I-58, 2-[4-(4-chlorophenyl)-1H-pyrazol-1-yl]-N-(1,1-dioxo-2,3-dihydro-1lambda6-thiophen-3-yl)-N-{[2-(2-hydroxypropan-2-yl)pyridin-4-yl]methyl}acetamide] | < 500
CC(C)(O)c1cc(CN(C(=O)Cn2cc(-c3cccc(F)c3)cn2)C2C=CS(=O)(=O)C2)ccn1 (stereo not drawn) [I-59, N-(1,1-dioxo-2,3-dihydro-1lambda6-thiophen-3-yl)-2-[4-(3-fluorophenyl)-1H-pyrazol-1-yl]-N-{[2-(2-hydroxypropan-2-yl)pyridin-4-yl]methyl}acetamide] | < 500
Cc1cccn1-c1ccc(CC(=O)N(Cc2nc(C3CC3)cs2)C2C=CS(=O)(=O)C2)c(F)c1 (stereo not drawn) [I-60, N-[(4-cyclopropyl-1,3-thiazol-2-yl)methyl]-N-(1,1-dioxo-2,3-dihydro-1lambda6-thiophen-3-yl)-2-[2-fluoro-4-(2-methyl-1H-pyrrol-1-yl)phenyl]acetamide] | < 500
CC(C)(O)c1cc(CN(C(=O)Cc2ccc(-n3cccc3)cc2F)C2C=CS(=O)(=O)C2)ccn1 (stereo not drawn) [I-61, N-(1,1-dioxo-2,3-dihydro-1lambda6-thiophen-3-yl)-2-[2-fluoro-4-(1H-pyrrol-1-yl)phenyl]-N-{[2-(2-hydroxypropan-2-yl)pyridin-4-yl]methyl}acetamide] | < 500
CCN(CC)C(=O)C(C(=O)N(Cc1ccnc(C(C)(C)O)c1)C1C=CS(=O)(=O)C1)c1ccc(-c2ccc(F)c(F)c2)cc1F (stereo not drawn) [I-62, N′-(1,1-dioxo-2,3-dihydro-1lambda6-thiophen-3-yl)-N,N-diethyl-N′-{[2-(2-hydroxypropan-2-yl)pyridin-4-yl]methyl}-2-{3,3′,4′-trifluoro-[1,1′-biphenyl]-4-yl}propanediamide] | < 500
O=C(Cc1ccc(S(F)(F)(F)(F)F)cc1)N(Cc1ccncc1)C1C=CS(=O)(=O)C1 (stereo not drawn) [I-63, N-(1,1-dioxo-2,3-dihydro-1lambda6-thiophen-3-yl)-2-[4-(pentafluoro-lambda6-sulfanyl)phenyl]-N-[(pyridin-4-yl)methyl]acetamide] | < 500
COc1cc(CN(C(=O)Cc2ccc(-c3ccc(F)c(F)c3)cc2F)C2C=CS(=O)(=O)C2)ccn1 (stereo not drawn) [I-64, N-(1,1-dioxo-2,3-dihydro-1lambda6-thiophen-3-yl)-N-[(2-methoxypyridin-4-yl)methyl]-2-{3,3′,4′-trifluoro-[1,1′-biphenyl]-4-yl}acetamide] | < 500
Cc1cccn1-c1ccc(CC(=O)N(Cc2ccnc(C3(O)CCC3)c2)C2C=CS(=O)(=O)C2)c(F)c1 (stereo not drawn) [I-65, N-(1,1-dioxido-2,3-dihydrothiophen-3-yl)-2-(2-fluoro-4-(2-methyl-1H-pyrrol-1-yl)phenyl)-N-((2-(1-hydroxycyclobutyl)pyridin-4-yl)methyl)acetamide] | < 500
Cc1cccn1-c1ccc(CC(=O)N(Cc2ccnc(C(C)(C)O)c2)C2C=CS(=O)(=O)C2)c(F)c1 (stereo not drawn) [I-66, N-(1,1-dioxo-2,3-dihydro-1lambda6-thiophen-3-yl)-2-[2-fluoro-4-(2-methyl-1H-pyrrol-1-yl)phenyl]-N-{[2-(2-hydroxypropan-2-yl)pyridin-4-yl]methyl}acetamide] | < 500
Cc1cccn1-c1ccc(CC(=O)N(Cc2ccnc(OCC(F)(F)F)c2)C2C=CS(=O)(=O)C2)c(F)c1 (stereo not drawn) [I-67, N-(1,1-dioxo-2,3-dihydro-1lambda6-thiophen-3-yl)-2-[2-fluoro-4-(2-methyl-1H-pyrrol-1-yl)phenyl]-N-{[2-(2,2,2-trifluoroethoxy)pyridin-4-yl]methyl}acetamide] | < 500
COc1cc(CN(C(=O)Cn2cc(-c3ccc(F)cc3)cn2)C2C=CS(=O)(=O)C2)ccn1 (stereo not drawn) [I-68, N-(1,1-dioxo-2,3-dihydro-1lambda6-thiophen-3-yl)-2-[4-(4-fluorophenyl)-1H-pyrazol-1-yl]-N-[(2-methoxypyridin-4-yl)methyl]acetamide] | < 500
COc1cc(CN(C(=O)Cc2ccc(-n3cccc3C)cc2F)C2C=CS(=O)(=O)C2)ccn1 (stereo not drawn) [I-69, N-(1,1-dioxo-2,3-dihydro-1lambda6-thiophen-3-yl)-2-[2-fluoro-4-(2-methyl-1H-pyrrol-1-yl)phenyl]-N-[(2-methoxypyridin-4-yl)methyl]acetamide] | < 500
CC(C)(O)c1cc(CN(C(=O)Cc2ccc(-c3cccc(Cl)c3)cc2F)C2C=CS(=O)(=O)C2)ccn1 (stereo not drawn) [I-70, 2-{3′-chloro-3-fluoro-[1,1′-biphenyl]-4-yl}-N-(1,1-dioxo-2,3-dihydro-1lambda6-thiophen-3-yl)-N-{[2-(2-hydroxypropan-2-yl)pyridin-4-yl]methyl}acetamide] | < 500
COc1cc(CN(C(=O)C(OC)c2ccc(-c3ccc(F)cc3)cc2F)C2C=CS(=O)(=O)C2)ccn1 (stereo not drawn) [I-71, 2-{3,4′-difluoro-[1,1′-biphenyl]-4-yl}-N-(1,1-dioxo-2,3-dihydro-1lambda6-thiophen-3-yl)-2-methoxy-N-[(2-methoxypyridin-4-yl)methyl]acetamide] | < 500
Cc1cccn1-c1ccc(CC(=O)N(Cc2nc3ccccc3s2)C2C=CS(=O)(=O)C2)c(F)c1 (stereo not drawn) [I-73, N-[(1,3-benzothiazol-2-yl)methyl]-N-(1,1-dioxo-2,3-dihydro-1lambda6-thiophen-3-yl)-2-[2-fluoro-4-(2-methyl-1H-pyrrol-1-yl)phenyl]acetamide] | < 500
COC(C(=O)N(Cc1nc(C2CC2)cs1)C1C=CS(=O)(=O)C1)c1ccc(S(F)(F)(F)(F)F)cc1 (stereo not drawn) [I-74, N-[(4-cyclopropyl-1,3-thiazol-2-yl)methyl]-N-(1,1-dioxo-2,3-dihydro-1lambda6-thiophen-3-yl)-2-methoxy-2-[4-(pentafluoro-lambda6-sulfanyl)phenyl]acetamide] | < 500

— patent US20260297070A1, “CYCLIC [COMPOUND LEFT OUT] WRN INHIBITORS” (Nimbus Wadjet, Inc., priority 2023, published 2026)
